{
  "source": "patent US20150330992A1",
  "about": "“RAPID DISCOVERY AND SCREENING OF ENZYME ACTIVITY USING MASS SPECTROMETRY” (THE REGENTS OF THE UNIVERSITY OF CALIFORNIA, priority 2012, published 2015)",
  "key": {"[1]": {"target": "T1, chloramphenicol acetyltransferase (CAT) (Escherichia coli, UniProt P62577)", "T1 sequence (P62577 whole entry, looked up)": "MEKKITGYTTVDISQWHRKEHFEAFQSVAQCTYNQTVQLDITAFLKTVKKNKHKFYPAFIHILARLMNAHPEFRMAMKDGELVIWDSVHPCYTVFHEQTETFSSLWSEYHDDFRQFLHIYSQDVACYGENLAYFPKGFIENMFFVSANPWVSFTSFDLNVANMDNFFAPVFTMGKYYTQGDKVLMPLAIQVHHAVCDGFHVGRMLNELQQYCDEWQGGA", "test": "PECAN detection of CAT activity in E. coli cell lysate", "assay_type": "biochemical", "design": "expressed in transfected cells; host or cells: E. coli DH1 harboring pBbB8k-CAT, arabinose-induced, sonicated lysate", "conditions": "cell lysate with added acetyl-CoA, 2 mM probe", "protocol": "Acetyl-CoA was added to a final concentration of 5 mM and the ChlorHexy PECAN probe to a final concentration of 2 mM. […] 5 uL, of the mixture was then mixed with 5 uL of click reaction solution [50 mM Tris(3-hydroxypropyltriazolylmethyl)amine (THPTA), 50 mM sodium ascorbate, 10 mM copper sulfate and 0.5 mM PECAN tag Nz-N3 (structure shown below) in 50:50 water:methanol] and left to react overnight. […] The spotted area was washed with 2×1 μL deionized water and NIMS spectra were obtained."}, "[2]": {"target": "T1, chloramphenicol acetyltransferase (CAT)", "test": "PECAN detection of CAT activity in whole E. coli cell culture", "assay_type": "cell-based", "design": "expressed in transfected cells; host or cells: E. coli DH1 harboring pBbB8k-CAT, arabinose-induced, sonicated lysate", "conditions": "whole cell culture without exogenous cofactors, 2 mM probe, 1 h", "protocol": "For the detection of CAT activity in E. coli cell culture, to 5 mL, of E. coli culture in LB medium expressing either GFP or CAT was added the ChlorHexy PECAN probe to a final concentration of 2 mM. The bacterial cultures were shaken at 37° C. for 1 h and quenched with an equal volume of methanol. 5 uL of this mixture was then mixed with 5 ul, of click reaction solution (recipe described above) and left to react overnight. NIMS analysis was performed as described above.\nIn FIG. 25, the 42-mass unit shift relative to the GFP control was the mass of a single acetyl group attached to the probe."}, "[3]": {"target": "T1, chloramphenicol acetyltransferase (CAT)", "conditions": "0.5 mM probe, 2 mM acetyl-CoA, 5 minutes; versus control lysate", "description": "Enzymatic activity assay—Overnight cultures of E. coli DH1 harboring either pBbB8k-GFP or pBbB8k-CAT were diluted 1:10 in LB with 50 μg mL^−1 kanamycin, and grown for 1 hour at 37° C., after which they were induced with 0.2% (w/v) arabinose. After 2 hours of growth, 0.5 mL of the culture was centrifuged at ˜12000×g for 1 minute, the pellet was resuspended in 0.25 mL aqueous 50 mM sodium phosphate (pH 7.5) and sonicated for 30 seconds. Acetyl-CoA was added to a final concentration of 2 mM and 11 to a final concentration of 0.5 mM. The mixture was mixed and incubated at room temperature for 5 minutes, and subsequently quenched with an equal volume of methanol. A 0.3 μL droplet of the mixture was spotted onto a NIMS chip, and the excess liquid removed 5 seconds later by touching it with a Kimwipe (Kimberly-Clark). The spotted area was washed twice with 1 μL deionized water. The NIMS chip was taped to a modified standard MALDI plate, which was then loaded into an Applied Biosystems 4800 MALDI time of flight (TOF)//TOF mass spectrometer. […] Spectra were acquired in manual mode and positive polarity."}, "cytochrome P450BM3": {"target": "T2, cytochrome P450BM3 (Priestia megaterium, UniProt P14779)", "T2 construct": "expressed in transfected cells; host or cells: E. coli liquid culture in terrific broth with d-aminolevulinic acid", "T2 sequence (P14779 whole entry)": "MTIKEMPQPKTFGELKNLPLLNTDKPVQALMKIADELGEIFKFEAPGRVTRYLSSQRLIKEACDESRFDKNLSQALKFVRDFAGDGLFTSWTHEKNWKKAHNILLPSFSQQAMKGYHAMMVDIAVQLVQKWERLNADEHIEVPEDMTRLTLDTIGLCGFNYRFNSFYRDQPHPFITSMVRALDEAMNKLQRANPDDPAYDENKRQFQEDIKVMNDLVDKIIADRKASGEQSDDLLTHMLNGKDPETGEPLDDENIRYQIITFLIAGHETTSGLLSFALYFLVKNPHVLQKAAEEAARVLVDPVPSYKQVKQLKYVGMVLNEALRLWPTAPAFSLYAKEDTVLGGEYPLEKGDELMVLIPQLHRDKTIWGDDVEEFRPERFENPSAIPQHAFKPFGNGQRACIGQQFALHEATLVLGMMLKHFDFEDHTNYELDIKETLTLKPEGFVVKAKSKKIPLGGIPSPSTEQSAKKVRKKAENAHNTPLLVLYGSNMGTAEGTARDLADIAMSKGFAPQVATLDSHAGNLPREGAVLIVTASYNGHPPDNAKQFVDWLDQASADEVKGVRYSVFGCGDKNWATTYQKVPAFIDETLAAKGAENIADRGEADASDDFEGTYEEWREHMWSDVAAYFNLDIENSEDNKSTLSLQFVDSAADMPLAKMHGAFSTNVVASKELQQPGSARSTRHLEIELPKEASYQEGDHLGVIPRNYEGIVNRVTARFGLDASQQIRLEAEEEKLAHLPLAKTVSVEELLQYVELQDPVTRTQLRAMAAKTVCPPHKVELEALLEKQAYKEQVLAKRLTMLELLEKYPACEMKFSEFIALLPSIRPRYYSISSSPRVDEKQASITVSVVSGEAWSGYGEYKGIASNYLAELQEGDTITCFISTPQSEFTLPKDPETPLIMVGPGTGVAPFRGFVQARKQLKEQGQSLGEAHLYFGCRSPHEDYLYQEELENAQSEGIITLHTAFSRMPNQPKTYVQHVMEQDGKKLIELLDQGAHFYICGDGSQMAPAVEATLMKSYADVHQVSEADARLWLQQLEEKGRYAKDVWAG", "test": "Whole-cell PECAN detection of cytochrome P450BM3 activity", "assay_type": "cell-based, E. coli", "conditions": "2 mM probe, 30° C., 16 h; versus GFP control", "protocol": "The CAEE PECAN probe was used to detect cytochrome P450BM3 activity in whole E. coli cell culture expressing cytochrome P450BM3 using NIMS technology. To 5 mL of E. coli liquid culture in teriffic broth supplemented with 0.5 mM d-aminolevulinic acid, expressing either GFP or cytochrome P450BM3, was added the CAEE PECAN probe to a final concentration of 2 mM and DMSO to a final concentration of 2%. The bacterial cultures were shaken in baffled borosilicate culture tubes at 30° C. for 16 h and quenched with an equal volume of methanol. 5 uL, of this mixture was then mixed with 5 uL, of click reaction solution [50 mM Tris(3-hydroxypropyltriazolylinethyl)amine (THPTA), 50 mM sodium ascorbate, 10 mM copper sulfate and 0.5 mM PECAN tag Nz-NPrg (structure shown below) in 50:50 water:methanol] and left to react overnight. NIMS analysis was performed as described above."}, "[4]": {"test_system": "Alicycyclobacillus acidocaldarius β-glucosidase", "test": "Steady-state kinetic analysis of β-glucosidase with varied cellobiose by oxime-NIMS", "assay_type": "biochemical", "conditions": "95% confidence level, r^2=0.997", "protocol": "A velocity versus substrate concentration analysis was used to determine the kinetic parameters for β-glucosidase (Aa-βG) from the thermoacidophilic bacterium Alicycyclobacillus acidocaldarius 22 using pure cellobiose as substrate. The experimental data were analyzed using the NonlinearModelFit routine of Mathematic v.8 (Wolfram Research) and v=kcat [S]/(KM+[S]) (kcat, KM, and [S] have their usual definitions).\nGlucose formed at different time points from the reaction of Alicycyclobacillus acidocaldarius β-glucosidase with varied cellobiose concentration was quantified and used for steady-state kinetic analysis. The data were analysed using the NonlinearModelFit routine of Mathematic v.8 and v=kcat [S]/(KM+[S]), where kcat, KM, and [S] have their usual definitions."}, "[5]": {"test_system": "Alicycyclobacillus acidocaldarius β-glucosidase", "conditions": "lacking error analysis; read-out: KM, previously reported; cited from earlier work"}},
  "note": "Where two headings read alike, the source gives them in different places.",
  "data": [
    {"compound": "C#CCCCC(=O)N[C@H](CO)[C@H](O)c1ccc([N+](=O)[O-])cc1", "note": "[ChlorHexy, chloramphenicol 5-hexynamide]", "values": [
      {"measurement": "CAT activity detected with probe", "setting": "[1]", "result": "CAT activity was detected"},
      {"measurement": "CAT activity detected with probe", "setting": "[2]", "result": "CAT activity was detected"}
    ]},
    {"compound": "(1R,2R)-N-Nz-1-(4-nitrophenyl)propane-1,3-diol [Compound 11]", "values": [
      {"measurement": "conversion of probe by CAT (NIMS mass shift)", "setting": "[3]", "result": "the peak shifts by 42 mass units, as expected from monoacetylation"}
    ]},
    {"compound": "[N-]=[N+]=NCCOC(=O)C1=CCCCC1", "note": "[CAEE, cyclohexenecarboxylate azidoethyl ester]", "values": [
      {"measurement": "conversion of probe by cytochrome P450BM3 (NIMS mass shift)", "setting": "cytochrome P450BM3", "result": "16-mass unit shift relative to the GFP control"}
    ]},
    {"compound": "O=C[C@H](O)[C@@H](O)[C@H](O[C@@H]1O[C@H](CO)[C@@H](O)[C@H](O)[C@H]1O)[C@H](O)CO", "note": "[cellobiose]", "values": [
      {"measurement": "Km", "setting": "[4]", "result": "12.1 ± 4.6", "unit": "mM"},
      {"measurement": "kcat", "setting": "[4]", "result": "1430 ± 850", "unit": "s⁻¹"},
      {"measurement": "Km", "setting": "[5]", "result": "~10", "unit": "mM"}
    ]}
  ]
}
